# Reference: ChEMBL document CHEMBL4177654, “Synthesis, antifungal and antitumor activity of two new types of imidazolin-2-ones” (Bioorg Med Chem, 2017)
# Activity calls are given as the source filed them. The rule behind the calls is not given here.
# Tests used:
# Botrytis cinerea [1] = assay: Antifungal activity against Botrytis cinerea assessed as inhibition of mycelium growth at 25 ug/ml after 48 hrs relative to control; format: functional
# Botrytis cinerea [2] = assay: Antifungal activity against Botrytis cinerea assessed as inhibition of spore germination at 50 ug/ml after 6 hrs by microscopic analysis relative to control; format: functional
# Botrytis cinerea [3] = assay: Antifungal activity against Botrytis cinerea assessed as inhibition of spore germination at 5 ug/ml after 6 hrs by microscopic analysis relative to control; format: functional
# Botrytis cinerea [4] = assay: Antifungal activity against Botrytis cinerea assessed as inhibition of mycelium growth at 5 ug/ml after 48 hrs relative to control; format: functional
# [5] = Inhibition of mTORC2 in human HeLa cells assessed as decrease in AKT phosphorylation at S473 residue preincubated for 1 hr followed by EGF1 stimulation by ELISA; format: cell-based
# HeLa = assay: Inhibition of mTORC2 in human HeLa cells assessed as decrease in AKT phosphorylation at S473 residue preincubated for 1 hr followed by EGF1 stimulation after 30 mins by Western blot analysis; format: cell-based
SMILES,inhibition at 25 µg/mL (Botrytis cinerea [1]) [%],inhibition at 50 µg/mL (Botrytis cinerea [2]) [%],other results
C=C(C)n1c(=O)n(C(=O)CCCC)c2cc([N+](=O)[O-])ccc21,7.26,48.5,–
C=C(C)n1c(=O)n(C(=O)c2cccc(C)c2)c2cc([N+](=O)[O-])ccc21,–,60.2,–
C=C(C)n1c(=O)n(C(=O)CCCCCCC)c2cc([N+](=O)[O-])ccc21,–,30.7,–
C=C(C)n1c(=O)n(C(=O)c2cccc(C)c2)c2ccc([N+](=O)[O-])cc21,11.4,65.8,–
C=C(C)n1c(=O)n(C(=O)c2cccc(Cl)c2)c2cc([N+](=O)[O-])ccc21,10.7,63.4,–
C=C(C)n1c(=O)n(C(=O)CCC)c2cc([N+](=O)[O-])ccc21,–,46.7,–
C=C(C)n1c(=O)n(C(=O)CCCCCC)c2cc(Br)cnc21,44.9,59.2,–
C=C(C)n1c(=O)n(C(=O)CCC)c2ccc([N+](=O)[O-])cc21,–,52.4,–
C=C(C)n1c(=O)n(C(C)=O)c2cc([N+](=O)[O-])ccc21,33.5,85.2,–
C=C(C)n1c(=O)n(C(=O)c2ccccc2Cl)c2cc([N+](=O)[O-])ccc21,–,59.2,–
C=C(C)n1c(=O)n(C(=O)CCCCCCC)c2cc(Br)cnc21,51.3,49,–
C=C(C)n1c(=O)n(C(=O)c2cccc(Cl)c2)c2cc(Br)cnc21,55.8,59.2,–
C=C(C)n1c(=O)n(C(=O)c2ccccc2Cl)c2cc(Br)cnc21,17.5,13.3,–
C=C(C)n1c(=O)n(C(=O)c2cccc(Cl)c2)c2ccc([N+](=O)[O-])cc21,16.7,86.2,–
CO/C=C(/C(=O)OC)c1ccccc1Oc1cc(Oc2ccccc2C#N)ncn1 [AZOXYSTROBIN],–,–,inhibition at 5 µg/mL (Botrytis cinerea [3]): 92.1%; inhibition at 5 µg/mL (Botrytis cinerea [4]): 98.8%
C=C(C)n1c(=O)n(C(=O)c2ccccc2)c2cc(Br)cnc21,37.2,38.8,–
C=C(C)n1c(=O)n(C(=O)CCCC)c2cc(Br)cnc21,60.1,59.2,–
NC1(c2ccc(-c3nc4ccn5c(=O)[nH]nc5c4cc3-c3ccccc3)cc2)CCC1 [MK-2206],–,–,IC50 [5]: 22.8 nM
C=C(C)n1c(=O)n(C(=O)C2CC2)c2cc(Br)cnc21,92.8,78.6,–

SMILES,inhibition at 25 µg/mL (Botrytis cinerea [1]) [%],inhibition at 50 µg/mL (Botrytis cinerea [2]) [%],other results
C=C(C)n1c(=O)n(C(=O)c2cccc(C)c2)c2cc(Br)cnc21,41.5,17.4,–
C=C(C)n1c(=O)n(C(=O)Cc2ccccc2)c2cc(Br)cnc21,66.7,59.2,inhibition (HeLa): Active
C=C(C)n1c(=O)n(C(=O)c2ccccc2C)c2ccc([N+](=O)[O-])cc21,18.5,68.3,–
C=C(C)n1c(=O)n(C(=O)c2ccccc2Cl)c2ccc([N+](=O)[O-])cc21,13.6,72.1,–
C=C(C)n1c(=O)n(C(=O)CCCCC)c2ccc([N+](=O)[O-])cc21,–,55.9,–
C=C(C)n1c(=O)n(C(=O)c2ccccc2C)c2cc(Br)cnc21,53.7,49,–
C=C(C)n1c(=O)n(C(=O)CC)c2cc(Br)cnc21,94.2,98,–
C=C(C)n1c(=O)n(C(=O)CCCCCCC)c2ccc([N+](=O)[O-])cc21,–,32.5,–
C=C(C)n1c(=O)n(C(=O)CCl)c2cc(Br)cnc21,69,74.9,inhibition (HeLa): Active
C=C(C)n1c(=O)n(C(=O)CC)c2ccc([N+](=O)[O-])cc21,8.72,49.6,–
C=C(C)n1c(=O)n(C(=O)c2ccccc2C)c2cc([N+](=O)[O-])ccc21,–,60.8,–
COC(=O)Nc1nc2ccccc2[nH]1 [CARBENDAZIM],–,–,inhibition at 5 µg/mL (Botrytis cinerea [4]): 94.2%
C=C(C)n1c(=O)n(C(=O)CC)c2cc([N+](=O)[O-])ccc21,–,45.2,–
C=C(C)n1c(=O)n(C(=O)c2ccc(Cl)cc2)c2cc(Br)cnc21,54,28.6,–
C=C(C)n1c(=O)n(C(C)=O)c2ccc([N+](=O)[O-])cc21,97.7,100,–
C=C(C)n1c(=O)n(C(=O)CCCCC)c2cc([N+](=O)[O-])ccc21,5.65,42.9,–
C=C(C)n1c(=O)n(C(=O)CCCC)c2ccc([N+](=O)[O-])cc21,–,51.8,–
C=C(C)n1c(=O)n(C(=O)CCC)c2cc(Br)cnc21,97.3,99,–
C=C(C)n1c(=O)n(C(=O)CCCCC)c2cc(Br)cnc21,42.5,23.5,–
